Results from patent publication US9615579B2, “Compositions for powdery mildew control and methods of their use” (Valent U.S.A., Corporation, priority 2015, dated 2017).

Tests used:
[1] = test system: apple powdery mildew; test: Example 1: foliar applications on jonagold apple trees, control of apple powdery mildew; assay type: in vivo, Podosphaera leucotricha; conditions: jonagold trees about 9 years old; five foliar sprays at 14 day intervals, about 300 L/ha; incidence of disease observed about a week after last treatment; rates (own compound 50 g active/ha, silicone surfactant 584 mL/ha, Regulaid surfactant 0.125% v/v, methylated seed oil 0.06% v/v, kresoxim-methyl 224, penthiopyrad 234 g active/ha)
Excerpt: Applicant conducted the following study to determine the effect of 3-(difluoromethyl)-1-methyl-N-[(3R)-1,1,3-trimethyl-2,3-dihydroinden-4-yl]pyrazole-4-carboxamide foliar applications on fungal infections in apple trees.
A 40% suspension concentrate formulation was used as the source of 3-(difluoromethyl)-1-methyl-N-[(3R)-1,1,3-trimethyl-2,3-dihydroinden-4-yl]pyrazole-4-carboxamide (available from Sumitomo Chemical Company, Tokyo, Japan).
Regulaid® is a nonionic surfactant and was used as the source of the 2-butoxyethanol, poloxalene, and monopropylene glycol surfactant (Regulaid is available from and a registered trademark of KALO, Inc). Regulaid® contains about 90.6% of 2-butoxyethanol, poloxalene, and monopropylene glycol.
Sovran® was used as the source of kresoxim-methyl (available from and a registered trademark of BASF Corporation).
Fontelis® was used as the source of penthiopyrad (available from and a registered trademark of E.I. du Pont).
Slygard® 309 was used as the source of a mixture of 3-(3-hydroxypropyl)-heptamethyltrisiloxane-ethoxylated acetate, polyethylene glycol monallyl acetate and polyethylene glycol diacetate silicone containing surfactant (available from and a registered trademark of Wilbur-Ellis Company). Slygard® 309 contains 100% of the mixture of surfactants.

[2] = test system: apple powdery mildew; test: Example 2: foliar applications on jonagold apple trees, incidence and severity of apple powdery mildew; assay type: in vivo, Podosphaera leucotricha
Method: Applicant conducted the following study to determine the effect of a 3-(difluoromethyl)-1-methyl-N-[(3R)-1,1,3-trimethyl-2,3-dihydroinden-4-yl]pyrazole-4-carboxamide foliar applications on fungal infections in apple trees.
(§1) 30, 2015. […] Pest incidence, pest severity, and fruit finish were measured.
SYL-COAT™ was used as the source of polyether-polymethylsiloxane-copolymer and polyether silicone containing surfactant (available from Wilbur-Ellis Company).

[3] = test system: Apples, jonagold variety; test: Example 2: fruit finish quality of treated apple trees; assay type: in vivo; conditions: 80 days after 7th treatment
Method: as §1

[4] = 8 days after 4th treatment, rates (own compound 50 g/ha, penthiopyrad 234 g/ha, kresoxim-methyl 224 g/ha, silicone surfactant 8 fl oz/a, Regulaid surfactant 0.125% v/v)

Row | SMILES | % Control [1] [%] | Incidence of Apple Powdery Mildew (%) ([2]; 2 days after 5th treatment) | Severity of Apple Powdery Mildew (%) ([2]; 2 days after 5th treatment) | Incidence of Apple Powdery Mildew (%) ([2]; 3 days after 6th treatment) | Severity of Apple Powdery Mildew (%) ([2]; 3 days after 6th treatment) | Incidence of Apple Powdery Mildew (%) [2, 4] | Severity of Apple Powdery Mildew (%) ([2]; 9 days after 7th treatment) | Fruit Finish Quality (0 lowest-10 highest) [3] [b]
1 | CO/N=C(/C(=O)OC)c1ccccc1COc1ccccc1C [Kresoxim-methyl, kresoxim-methyl] | 63 | 3.4874 cd % | 0.8465 cd % | 12.0332 cd % | 2.9013 c % | 8.7500 bc % | 9.0294 bc % | 8.2500
2 | C[C@@H]1CC(C)(C)c2cccc(NC(=O)c3cn(C)nc3C(F)F)c21 [3-(Difluoromethyl)-1-methyl-N-[(3R)-1,1,3-trimethyl-2,3-dihydroinden-4-yl]pyrazole-4-carboxamide] | 67 | 11.5303 bc % | 1.6836 bc % | 20.4938 c % | 4.4196 c % | 13.0000 b % | 11.5331 bc % | 7.5000
3 | CC(C)CC(C)c1sccc1NC(=O)c1cn(C)nc1C(F)(F)F (stereo not drawn) [Penthiopyrad, penthiopyrad] | 71 | 1.4675 cd % | 0.6379 cd % | 2.5965 ef % | 0.7932 d % | 7.5000 bc % | 7.8439 c % | 8.0000
